The results in this text go back to US20120277209A1, “PYRAZINE COMPOUNDS AS PHOSPHODIESTERASE 10 INHIBITORS” (Amgen Inc., priority 2009, published 2012).

Bounds are passed on as bounds.

In the first test the target is PDE10 (UniProt Q9Y233). Description: PDE10 enzyme inhibition, IMAP TR-FRET assay (MPDE10A7 Enzyme Activity and Inhibition). Particulars: IC50 class against PDE10; read-out: IC50. The test is classed as biochemical. In a few lines: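 PDE10A enzyme or tissue homogenate preincubated with compounds 30 min at room temperature, then fluorescein-labelled cAMP or cGMP added for 60 min. IMAP binding reagent stop, TR-FRET read. Values are mean IC50s, grouped into five potency classes.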
On to `O[C@H]1CCC[C@H](c2nccnc2Oc2ccc(Nc3nc4ccccc4s3)cc2)C1` (racemic) [Example 192, (rac)-trans-3-(3-(4-(benzo[d]thiazol-2-ylamino)phenoxy)pyrazin-2-yl)cyclohexanol], for which the IC50 is below 25 nM.
Take `COC(=O)C1CN(c2nccnc2Oc2ccc(Nc3nc4ccccc4s3)cc2)C1` [Example 83, methyl 1-(3-(4-(benzo[d]thiazol-2-ylamino)phenoxy)pyrazin-2-yl)azetidine-3-carboxylate]: the IC50 is below 25 nM.
As to `COCC1CCN(c2nccnc2Oc2ccc(Nc3nc4ccccc4s3)cc2)CC1` [Example 87, N-(4-(3-(4-(methoxymethyl)-piperidin-1-yl)pyrazin-2-yl-oxy)phenyl)benzo[d]thiazol-2-amine], the IC50 fell in the range of 25 to 100 nM.
For the compound `c1ccc2sc(Nc3ccc(Oc4nccnc4-c4ccc(N5CCOCC5)cc4)cc3)nc2c1` [Example 139, N-(4-(3-(4-morpholinophenyl)pyrazin-2-yloxy)phenyl)benzo[d]thiazol-2-amine], the IC50 lay within 100 to 250 nM.
Turning to `Clc1ccc(-c2nccnc2Oc2ccc(Nc3nc4ccccc4s3)cc2)cn1` [Example 145, N-(4-(3-(6-chloropyridin-3-yl)pyrazin-2-yloxy)phenyl)benzo[d]thiazol-2-amine], the IC50 was below 25 nM.
For `CC1(O)CCN(c2nccnc2Oc2ccc(Nc3nc4ccccc4s3)cc2)CC1` [Example 60, 1-(3-(4-(BENZO[D]THIAZOL-2-YLAMINO)PHENOXY)PYRAZIN-2-YL)-4-METHYLPIPERIDIN-4-OL], the IC50 was below 25 nM.
On to `N#CC1(c2nccnc2Oc2ccc(Nc3nc4ccccc4s3)cc2)CCOCC1` [Example 200, 4-(3-(4-(BENZO[D]THIAZOL-2-YLAMINO)PHENOXY)PYRAZIN-2-YL)TETRAHYDRO-2H-PYRAN-4-CARBONITRILE], for which the IC50 is below 25 nM.
Turning to `O=C(c1ccc(Oc2nccnc2OCCN2CCCC2)cc1)c1nc2ccccc2[nH]1` [Example 173, (1H-benzo[d]imidazol-2-yl)(4-(3-(2-(pyrrolidin-1-yl)ethoxy)pyrazin-2-yloxy)phenyl)methanone], the IC50 was in the range of 100 to 250 nM.
Turning to `O=C(c1ccc(Oc2nccnc2-c2ccnc(C(F)(F)F)c2)cc1)c1nc2ccccc2[nH]1` [Example 104, (1H-BENZO[D]IMIDAZOL-2-YL)(4-(3-(2-(TRIFLUOROMETHYL)PYRIDIN-4-YL)PYRAZIN-2-YLOXY)PHENYL)METHANONE], the IC50 was below 25 nM.
Same read-out and setting: the same measure for `FC(F)(c1ccc(Oc2nccnc2N2CCOCC2)cc1)c1nc2ccccc2[nH]1` [Example 7, 4-(3-(4-((1H-BENZO[D]IMIDAZOL-2-YL)DIFLUOROMETHYL)PHENOXY)PYRAZIN-2-YL)MORPHOLINE]: 100 to 250 nM; for `COc1ncccc1-c1nccnc1Oc1ccc(C(=O)c2nc3cc(F)ccc3[nH]2)cc1` [Example 117, (5-fluoro-1H-benzo[d]imidazol-2-yl)(4-(3-(2-methoxypyridin-3-yl)pyrazin-2-yloxy)phenyl)methanone]: 25 to 100 nM.
The same measure, in the same setting: the same measure for `COc1ncccc1-c1nccnc1Oc1ccc(Nc2nc3cccc(F)c3s2)cc1` [Example 151, 7-fluoro-N-(4-(3-(2-methoxypyridin-3-yl)pyrazin-2-yloxy)phenyl)benzo[d]thiazol-2-amine]: 25 to 100 nM; for `OCC1CCCCN1c1nccnc1Oc1ccc(Nc2nc3ccccc3s2)cc1` (stereo not drawn) [Example 97, (1-(3-(4-(benzo[d]thiazol-2-ylamino)phenoxy)pyrazin-2-yl)piperidin-2-yl)methanol]: below 25 nM; for `O=C(c1ccc(Oc2nccnc2-c2ccnc3ccccc23)cc1)c1nc2ccccc2[nH]1` [Example 129, (1H-benzo[d]imidazol-2-yl)(4-(3-(quinolin-4-yl)pyrazin-2-yloxy)phenyl)methanone]: 25 to 100 nM.
On the same count and under the same terms, the same measure for `C[C@]1(O)CC[C@H](c2nccnc2Oc2ccc(C(=O)c3nc4ccccc4[nH]3)cc2)CC1` [Example 197, (1H-benzo[d]imidazol-2-yl)(4-(3-((1R,4R)-4-hydroxy-4-methylcyclohexyl)pyrazin-2-yloxy)phenyl)methanone]: below 25 nM; for `O=C(O)C1CN(c2nccnc2Oc2ccc(Nc3nc4ccccc4s3)cc2)C1` [Example 78, 1-(3-(4-(benzo[d]thiazol-2-ylamino)phenoxy)pyrazin-2-yl)azetidine-3-carboxylic acid]: below 25 nM; for `COc1ncc(F)cc1-c1nccnc1Oc1ccc(C(=O)c2nc3ccccc3[nH]2)cc1` [Example 116, (1H-benzo[d]imidazol-2-yl)(4-(3-(5-fluoro-2-methoxypyridin-3-yl)pyrazin-2-yloxy)phenyl)methanone]: below 25 nM.
With `O=C(c1ccc(Oc2nccnc2Oc2cccnc2)cc1)c1nc2ccccc2[nH]1` [Example 168, (1H-benzo[d]imidazol-2-yl)(4-(3-(pyridin-3-yloxy)pyrazin-2-yloxy)phenyl)methanone], the IC50 was 100 to 250 nM.
Still for that read-out and setting: the same measure for `O=C(c1ccc(Oc2nccnc2OCC2CC2)cc1)c1nc2ccccc2[nH]1` [Example 163, (1H-benzo[d]imidazol-2-yl)(4-(3-(cyclopropylmethoxy)pyrazin-2-yloxy)phenyl)methanone]: 250 to 1000 nM.
In the case of `O=C(c1ccc(Oc2nccnc2OCc2ccncc2)cc1)c1nc2ccccc2[nH]1` [Example 176, (1H-benzo[d]imidazol-2-yl)(4-(3-(pyridin-4-ylmethoxy)pyrazin-2-yloxy)phenyl)methanone], the IC50 fell in the range of 100 to 250 nM.

The same test, now with this note: PDE10 enzyme inhibition; average IC50 data for each compound; read-out: Average IC50.
`O=C(c1ccc(Oc2nccnc2N2CC[C@@H](CO)C2)cc1)c1nc2ccccc2[nH]1`: the IC50 stood at 2.05 nM.
With `O=C1CCCC(c2nccnc2Oc2ccc(Nc3nc4ccccc4s3)cc2)C1` (stereo not drawn), the IC50 was found to be 1.21 nM.
For the compound `FC(F)(c1ccc(Oc2nccnc2C2CCOCC2)cc1)c1nc2ccccc2[nH]1`, the IC50 was 52.9 nM.
`COc1cc(-c2nccnc2Oc2ccc(Nc3nc4ccccc4s3)cc2)ccn1` [drawing 958]: the IC50 was found to be 46.4 nM.
Same read-out and setting: to `Fc1cc(Oc2nccnc2Cl)ccc1Nc1nc2ccccc2s1` [drawing 836] belongs 614 nM; to `O=C1CCCC(c2nccnc2Oc2ccc(C(=O)c3nc4ccccc4[nH]3)cc2)C1` (stereo not drawn), 1.33 nM; to `C[C@@H](F)C(=O)N1CCC(c2nccnc2Oc2ccc(Nc3nc4ccccc4s3)cc2)CC1` [drawing 978], 0.031 nM.
Turning to `COc1ncccc1-c1nccnc1Oc1ccc(C(=O)c2nc3cc(F)ccc3[nH]2)cc1` [drawing 931], the half-maximal inhibitory concentration (IC50) is 5.84 nM.
The same measure, in the same setting: the same measure for `N#C[C@@H]1CCCN(c2nccnc2Oc2ccc(C(=O)c3nc4ccccc4[nH]3)cc2)C1` (stereo in doubt): 6.79 nM; for `c1ccc2sc(Nc3ccc(Oc4nccnc4[C@H]4CCCOC4)cc3)nc2c1` (stereo in doubt): 2.43 nM.
`O=C(c1ccc(Oc2nccnc2-c2cccnc2)cc1)c1nc2ccccc2[nH]1` [drawing 754]: the IC50 turned out to be 8.05 nM.
In the case of `O=C(c1ccc(Oc2nccnc2[C@@H]2CCC[C@@H](O)C2)cc1)c1nc2ccccc2[nH]1`, the IC50 amounted to 0.992 nM.
Take `O=C(O)c1ccc(-c2nccnc2Oc2ccc(C(=O)c3nc4ccccc4[nH]3)cc2)cc1` [drawing 761]: the IC50 is 2.06 nM.
The same measure, in the same setting: to `O=C(O)C1CN(c2nccnc2Oc2ccc(Nc3nc4ccccc4s3)cc2)C1` [drawing 718] belongs 2.16 nM; to `COc1ncccc1-c1nccnc1Oc1ccc(Nc2nc3ccccc3s2)cc1` [drawing 886], 3.67 nM; to `O=C(c1ccc(Oc2nccnc2Cl)cc1)c1nc2ccc(F)cc2[nH]1` [drawing 813], 1580 nM.
With `O[C@@H]1C=C(c2nccnc2Oc2ccc(Nc3nc4ccccc4s3)c(F)c2)CCC1` (stereo in doubt), the IC50 worked out at 7.9 nM.
On the same count and under the same terms, the same measure for `COc1ncccc1-c1nccnc1Oc1ccc(C(=O)c2nc3ccccc3n2C)cc1` [drawing 896]: 0.594 nM.
For the compound `CN1CCC2(CCN(c3nccnc3Oc3ccc(C(=O)c4nc5ccccc5[nH]4)cc3)CC2)C1=O`, the IC50 was determined as 12.8 nM.
The same measure, in the same setting: to `COc1nccnc1Oc1ccc(C(=O)c2nc3ccccc3[nH]2)cc1` [drawing 843] belongs 43.6 nM; to `COc1ccc(COc2ncccc2-c2nccnc2Oc2ccc(C(=O)c3nc4ccccc4[nH]3)cc2)cc1`, 10.9 nM; to `CN1CCC(c2nccnc2Oc2ccc(Nc3nc4ccccc4s3)cc2)CC1` [drawing 966], 5.92 nM.
Take `C[C@@H](O)C(=O)N1CCC(c2nccnc2Oc2ccc(Nc3nc4ccccc4s3)cc2)CC1` (stereo in doubt): the IC50 is 0.0455 nM.
Regarding `O=C(c1ccc(Oc2nccnc2N2CCC(N3CCOCC3)CC2)cc1)c1nc2ccccc2[nH]1`, the IC50 is 27 nM.
With `COCC(=O)N1CCC(c2nccnc2Oc2ccc(Nc3nc4ccccc4s3)cc2)CC1` [drawing 946], the IC50 worked out at 0.024 nM.
Take `Fc1cc(-c2nccnc2Oc2ccc(Nc3nc4ccccc4s3)c(F)c2)ccn1` [drawing 974]: the IC50 amounted to 63.1 nM.
In the case of `CC(=O)N1CC=C(c2nccnc2Oc2ccc(C(=O)c3nc4ccccc4[nH]3)cc2)CC1` [drawing 751], the IC50 was determined as 1.16 nM.
As for `COc1ncccc1-c1nccnc1Oc1ccc(Nc2nc3ccccc3s2)c(F)c1` [drawing 972], the concentration for half-maximal inhibition (IC50) stood at 2.68 nM.

The test is the same for the next values; noted with them: PDE10 enzyme inhibition; chiral compounds separated from racemic mixtures; read-out: IC50.
`CCOC(=O)[C@H]1CCCN(c2nccnc2Oc2ccc(C(=O)c3nc4ccccc4[nH]3)cc2)C1` [Example 264, (S)-ethyl 1-(3-(4-(1H-benzo[d]imidazole-2-carbonyl)phenoxy)pyrazin-2-yl)piperidine-3-carboxylate]: the half-inhibitory concentration (IC50) was below 25 nM.
Same read-out and setting: to `O=C(c1ccc(Oc2nccnc2[C@@H]2CCC[C@@H](O)C2)cc1)c1nc2ccccc2[nH]1` (stereo in doubt) [Example 274, (1H-benzo[d]imidazol-2-yl)(4-(3-((1R,3R)-3-hydroxycyclohexyl)pyrazin-2-yloxy)phenyl) methanone] belongs below 25 nM; to `C[C@@H]1CN(c2nccnc2Oc2ccc(Nc3nc4ccccc4s3)cc2)CC(=O)N1` [Example 267, (R)-4-(3-(4-(benzo[d]thiazol-2-ylamino)phenoxy)pyrazin-2-yl)-6-methylpiperazin-2-one], below 25 nM.
